The source of these data is patent publication US9242996B2 (Novartis AG, priority 2013, dated 2016).

activated ERK2, sequence (P28482 whole entry): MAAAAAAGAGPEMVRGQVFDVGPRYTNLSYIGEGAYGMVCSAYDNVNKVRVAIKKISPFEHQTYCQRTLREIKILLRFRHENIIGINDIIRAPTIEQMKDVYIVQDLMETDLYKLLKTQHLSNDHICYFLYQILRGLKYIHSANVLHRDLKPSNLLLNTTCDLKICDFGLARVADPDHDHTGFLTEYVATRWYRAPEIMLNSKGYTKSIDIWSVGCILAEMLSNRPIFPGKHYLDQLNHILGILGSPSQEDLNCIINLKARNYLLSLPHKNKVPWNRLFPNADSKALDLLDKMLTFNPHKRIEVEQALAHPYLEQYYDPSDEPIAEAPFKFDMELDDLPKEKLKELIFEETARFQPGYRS

For this experiment, the target named is activated ERK2 (Homo sapiens (Human), UniProt P28482). As to the kind of experiment: Activated ERK2 (20 pM) Kinase Assay (AlphaScreen, ERKtide phosphorylation). The experiment is classed as biochemical. The note with it: 0.02 nM ERK2, 400 nM ERKtide peptide, 35 μM ATP, 30 min preincubation. On the procedure:
Activated ERK2 (20 pM) Kinase Assay:
The assay was carried out in 20 mM HEPES [pH 7.5], 5 mM MgCl2, 1 mM DTT, 0.01% Tween-20, 0.05% BSA using 0.02 nM ERK2, 400 nM ERKtide peptide and 35 μM ATP (all concentrations are final in the reaction) in a total volume of 10.25 μL. […] Compound dilution series were prepared in 100% DMSO. ERK2 was preincubated with compounds for 30 minutes at ambient temperature. Reaction was initiated by addition of a substrate cocktail of ERKtide peptide and ATP and was allowed to proceed for 4 hours at ambient temperature. Reaction was terminated by addition of 10 μL of a 2× stop buffer consisting of 100 mM Tris-Cl [pH 7.5], 25 mM EDTA, 0.01% Tween 20, 20 μg/mL of AlphaScreen Protein A Acceptor Beads, 20 μg/mL of Streptavidin Donor Beads (PerkinElmer, Waltham, Mass.), and 1:1000 dilution phospho-EGF Receptor (Thr669) antibody (Cat #8808, Cell Signaling Technology, Danvers, Mass.). Terminated reactions were read, after overnight incubation in the dark, on an EnVision Multilabel Plate Reader (PerkinElmer, Waltham, Mass.), with excitation and emission wavelengths set to 680 nm and 570 nm, respectively. IC50 values were determined using a four-parameter fit.
(In general: Alpha assays give light when donor and acceptor beads are brought close together.)
In the case of `CNC[C@@H](NC(=O)c1ccc(-c2nc([C@H]3CC[C@H](O)[C@@H](F)C3)cnc2N)cc1F)c1cc(F)cc(Br)c1` [Example 184, 4-(3-amino-6-((1S,3S,4S)-3-fluoro-4-hydroxycyclohexyl)pyrazin-2-yl)-N—((S)-1-(3-bromo-5-fluorophenyl)-2-(methylamino)ethyl)-2-fluorobenzamide], the IC50 (in general, the concentration that gives 50% inhibition) worked out at 0.0261 nM.

Regarding `Nc1ncc([C@@H]2CC[C@H](O)[C@H](F)C2)nc1-c1ccc(C(=O)N[C@H](CO)c2cc(F)cc(Br)c2)c(F)c1` [Example 185, 4-(3-amino-6-((1R,3R,4S)-3-fluoro-4-hydroxycyclohexyl)pyrazin-2-yl)-N—((S)-1-(3-bromo-5-fluorophenyl)-2-hydroxyethyl)-2-fluorobenzamide], it took 0.924 nM to reach half-maximal inhibition (IC50). In the case of `Nc1ncc([C@H]2CC[C@@H](O)[C@@H](F)C2)nc1-c1ccc(C(=O)N[C@H](CO)c2cc(F)cc(Br)c2)c(F)c1` [Example 186, 4-(3-amino-6-((1S,3S,4R)-3-fluoro-4-hydroxycyclohexyl)pyrazin-2-yl)-N—((S)-1-(3-bromo-5-fluorophenyl)-2-hydroxyethyl)-2-fluorobenzamide] it was 0.653 nM.

In turn, `Nc1ncc([C@@H]2CC[C@@H](O)[C@@H](F)C2)nc1-c1ccc(C(=O)N[C@H](CO)c2cc(F)cc(Br)c2)c(F)c1` [Example 187, 4-(3-amino-6-((1R,3S,4R)-3-fluoro-4-hydroxycyclohexyl)pyrazin-2-yl)-N—((S)-1-(3-bromo-5-fluorophenyl)-2-hydroxyethyl)-2-fluorobenzamide] showed a concentration for half-maximal inhibition (IC50) of 0.0363 nM. Take `Nc1ncc([C@H]2CC[C@H](O)[C@H](F)C2)nc1-c1ccc(C(=O)N[C@H](CO)c2cc(F)cc(Br)c2)c(F)c1` [Example 188, 4-(3-amino-6-((1S,3R,4S)-3-fluoro-4-hydroxycyclohexyl)pyrazin-2-yl)-N—((S)-1-(3-bromo-5-fluorophenyl)-2-hydroxyethyl)-2-fluorobenzamide]: the IC50 is 0.0469 nM.

Consider `Nc1ncc([C@H]2CC[C@H](O)[C@@H](F)C2)nc1-c1ccc(C(=O)N[C@H](CO)c2cc(F)cc(I)c2)c(F)c1` [Example 189, 4-(3-amino-6-((1S,3S,4S)-3-fluoro-4-hydroxycyclohexyl)pyrazin-2-yl)-2-fluoro-N—((S)-1-(3-fluoro-5-iodophenyl)-2-hydroxyethyl)benzamide], for which it took 0.0139 nM to reach half-maximal inhibition (IC50). As to `Nc1ncc([C@@H]2CC[C@@H](O)[C@H](F)C2)nc1-c1ccc(C(=O)N[C@H](CO)c2cc(F)cc(I)c2)c(F)c1` [Example 190, 4-(3-amino-6-((1R,3R,4R)-3-fluoro-4-hydroxycyclohexyl)pyrazin-2-yl)-2-fluoro-N—((S)-1-(3-fluoro-5-iodophenyl)-2-hydroxyethyl)benzamide], the IC50 came out at 0.0176 nM. Next, `Nc1ncc([C@H]2CC[C@H](O)CC2)nc1-c1ccc(C(=O)N[C@H]2C[C@@H]2c2ccccc2)c(F)c1` [Example 202, 4-(3-amino-6-((1r,4S)-4-hydroxycyclohexyl)pyrazin-2-yl)-2-fluoro-N-((1S,2R)-2-phenylcyclopropyl)benzamide]: 0.152 nM. In the case of `Nc1ncc([C@H]2CC[C@H](O)CC2)nc1-c1ccc(C(=O)N[C@@H]2C[C@H]2c2ccccc2)c(F)c1` [Example 203, 4-(3-amino-6-((1r,4R)-4-hydroxycyclohexyl)pyrazin-2-yl)-2-fluoro-N-((1R,2S)-2-phenylcyclopropyl)benzamide] it was 7.33 nM; in that of `N#Cc1cc(-c2cc(C3CCOCC3)cnc2N)cc(F)c1C(=O)NCc1ccccc1` [Example 204, 4-(2-amino-5-(tetrahydro-2H-pyran-4-yl)pyridin-3-yl)-N-benzyl-2-cyano-6-fluorobenzamide], 54.6 nM.

`Cc1nn(C(F)F)cc1-c1cnc(N)c(-c2ccc(C(=O)N[C@H](CO)c3cc(F)cc(CF)c3)c(F)c2)c1` [Example 206, (S)-4-(2-amino-5-(1-(difluoromethyl)-3-methyl-1H-pyrazol-4-yl)pyridin-3-yl)-2-fluoro-N-(1-(3-fluoro-5-(fluoromethyl)phenyl)-2-hydroxyethyl)benzamide] registered an IC50 of 0.0104 nM. Next, `NC[C@@H](NC(=O)c1ccc(-c2nc(C3CCCCC3)cnc2N)cc1F)c1cccc(Cl)c1` [Example 228, (S)-N-(2-amino-1-(3-chlorophenyl)ethyl)-4-(3-amino-6-cyclohexylpyrazin-2-yl)-2-fluorobenzamide]: 0.0505 nM; `Cn1nccc1-c1cnc(N)c(-c2ccc(C(=O)N[C@H](CN)c3cccc(Cl)c3)c(F)c2)c1` [Example 233, (S)-N-(2-amino-1-(3-chlorophenyl)ethyl)-4-(2-amino-5-(1-methyl-1H-pyrazol-5-yl)pyridin-3-yl)-2-fluorobenzamide]: 0.0209 nM. In the case of `Cn1cc(-c2cnc(N)c(-c3ccc(C(=O)N[C@H](CO)c4cc(F)cc(CF)c4)c(F)c3)c2)cn1` [Example 240, (S)-4-(2-amino-5-(1-methyl-1H-pyrazol-4-yl)pyridin-3-yl)-2-fluoro-N-(1-(3-fluoro-5-(fluoromethyl)phenyl)-2-hydroxyethyl) benzamide] it was 0.0199 nM. In turn, `Cn1cc(-c2cnc(N)c(-c3ccc(C(=O)N[C@H](CO)c4ccc(F)c(Cl)c4)c(F)c3)c2)cn1` [Example 241, (S)-4-(2-amino-5-(1-methyl-1H-pyrazol-4-yl)pyridin-3-yl)-N-(1-(3-chloro-4-fluorophenyl)-2-hydroxyethyl)-2-fluorobenzamide] yielded an IC50 of 0.944 nM. In the case of `Cc1c(-c2cnc(N)c(-c3ccc(C(=O)N[C@H](CO)c4cc(F)cc(CF)c4)c(F)c3)c2)cnn1C` [Example 242, (S)-4-(2-amino-5-(1,5-dimethyl-1H-pyrazol-4-yl)pyridin-3-yl)-2-fluoro-N-(1-(3-fluoro-5-(fluoromethyl)phenyl)-2-hydroxyethyl) benzamide] it was 0.00875 nM; in that of `Cc1nn(C)cc1-c1cnc(N)c(-c2ccc(C(=O)N[C@H](CO)c3cc(F)cc(CF)c3)c(F)c2)c1` [Example 243, (S)-4-(2-amino-5-(1,3-dimethyl-1H-pyrazol-4-yl)pyridin-3-yl)-2-fluoro-N-(1-(3-fluoro-5-(fluoromethyl)phenyl)-2-hydroxyethyl) benzamide], 0.0121 nM. `Cn1cc(-c2cnc(N)c(-c3ccc(C(=O)N[C@H](CO)C4CCCCC4)c(F)c3)c2)cn1` [Example 244, (S)-4-(2-amino-5-(1-methyl-1H-pyrazol-4-yl)pyridin-3-yl)-N-(1-cyclohexyl-2-hydroxyethyl)-2-fluorobenzamide] registered an IC50 of 157 nM. This IC50 lies about 13000-fold higher than the previous one. Turning to `Cn1cc(-c2cnc(N)c(-c3ccc(C(=O)N[C@H](CO)c4cc(F)cc(C(F)F)c4)c(F)c3)c2)cn1` [Example 253, (S)-4-(2-amino-5-(1-methyl-1H-pyrazol-4-yl)pyridin-3-yl)-N-(1-(3-(difluoromethyl)-5-fluorophenyl)-2-hydroxyethyl)-2-fluorobenzamide], 0.106 nM corresponded to half-maximal inhibition (IC50). Next, `Cn1nccc1-c1cnc(N)c(-c2ccc(C(=O)N[C@H](CO)c3cccc(CF)c3)c(F)c2)c1` [Example 254, (S)-4-(2-amino-5-(1-methyl-1H-pyrazol-5-yl)pyridin-3-yl)-2-fluoro-N-(1-(3-(fluoromethyl)phenyl)-2-hydroxyethyl) benzamide]: 0.0599 nM; `Cc1nn(C)cc1-c1cnc(N)c(-c2ccc(C(=O)N[C@H](CO)c3cccc(CF)c3)c(F)c2)c1` [Example 255, (S)-4-(2-amino-5-(1,3-dimethyl-1H-pyrazol-4-yl)pyridin-3-yl)-2-fluoro-N-(1-(3-(fluoromethyl)phenyl)-2-hydroxyethyl) benzamide]: 0.0287 nM; `Cc1c(-c2cnc(N)c(-c3ccc(C(=O)N[C@H](CO)c4cccc(CF)c4)c(F)c3)c2)cnn1C` [Example 256, (S)-4-(2-amino-5-(1,5-dimethyl-1H-pyrazol-4-yl)pyridin-3-yl)-2-fluoro-N-(1-(3-(fluoromethyl)phenyl)-2-hydroxyethyl) benzamide]: 0.0258 nM. As to `Nc1ncc(C2CCOCC2)nc1-c1ccc(C(=O)N[C@H](CO)c2cccc(CF)c2)c(F)c1` [Example 257, (S)-4-(3-amino-6-(tetrahydro-2H-pyran-4-yl)pyrazin-2-yl)-2-fluoro-N-(1-(3-(fluoromethyl)phenyl)-2-hydroxyethyl) benzamide], the IC50 came out at 0.0197 nM. Molecule `Nc1ncc(C2CCOCC2)nc1-c1ccc(C(=O)N[C@H](CO)c2cccc(Br)c2)c(F)c1` [Example 258, (S)-4-(3-amino-6-(tetrahydro-2H-pyran-4-yl)pyrazin-2-yl)-N-(1-(3-bromophenyl)-2-hydroxyethyl)-2-fluorobenzamide] registered an IC50 of 0.0343 nM. Next, `Nc1ncc(C2CCOCC2)nc1-c1ccc(C(=O)N[C@H](CO)c2cc(F)cc(Br)c2)c(F)c1` [Example 259, (S)-4-(3-amino-6-(tetrahydro-2H-pyran-4-yl)pyrazin-2-yl)-N-(1-(3-bromo-5-fluorophenyl)-2-hydroxyethyl)-2-fluorobenzamide]: 0.0127 nM; `Cc1c(-c2cnc(N)c(-c3ccc(C(=O)N[C@H](CO)c4cccc(CF)c4)c(F)c3)c2)cnn1C(F)F` [Example 260, (S)-4-(2-amino-5-(1-(difluoromethyl)-5-methyl-1H-pyrazol-4-yl)pyridin-3-yl)-2-fluoro-N-(1-(3-(fluoromethyl)phenyl)-2-hydroxyethyl) benzamide]: 0.0208 nM.
